From patent publication US9290468B2, “Benzoheterocyclic compounds and use thereof” (SHANGHAI KECHOW PHARMA, INC., priority 2012, dated 2016)
Each block holds one compound with its values, some of them ahead of it.

What was measured:
HT29 cells = experiment: Cell growth inhibition assay (MTT), HT29 cells; format: cell-based; conditions: Homo sapiens, HT-29, 72 h
Protocol: (§1) When the HT29 cells reach their exponential phase of growth, 4×10^3 cells/well were plated into 96-well plates, the edge of plates were filled with sterility PBS, at the same time, filled three holds only with medium as blank group. • 2. The plates were cultured in a humidified 5% CO2 incubator at 37° C. for 24 h, and allowed to proliferate for reaching their exponential phase of growth. • 3. Samples were dissolved in DMSO (dimethyl sulfoxide), the concentration of Samples is 10 mmol/L, 1 mmol/L, 100 μmol/L, 10 μmol/L, 1 μmol/L, 0.1 μmol/L, and further diluted with cell culture medium. The final does concentration were 10 μmol/L, 1 μmol/L, 100 nmol/L, 10 nmol/L, 1 nmol/L, 0.1 nmol/L, 0 nmol/L (the control group). The final DMSO concentration used was 1‰ of total volume of medium in all treatments, including the control group. • Blank: medium • Control: the same dose of DMSO with experiment. Group, the DMSO was diluted with cell perfect culture medium. • Experiment: the cells were treated with the concentration of 10 μmol/L, 1 μmol/L, 100 nmol/L, 10 nmol/L, 1 nmol/L, 0.1 nmol/L. • 4. The plates were cultured in a humidified 5% CO2 incubator at 37° C. for 72 h. 20 μL of 3-(4,5-dimethylthiazol-2-yl)-2,5-diphenyltetrazolium bromide (MTT) reagent (5 mg/mL) in phosphate buffered serum (PBS) was added to each well. • 5. The plates were cultured in a humidified 5% CO2 incubator at 37° C. for 4 h. Subsequently, the solution was aspirated and 150 uL dimethyl sulfoxide was added to release the formed formazan crystals from the living cells mitochondria into the solution. • 6. After moderated shaking for 3 min, absorbance was measured at 490 nm using microplate reader. Methods 2 (A375) • 1. When the A375 cells reach their exponential phase of growth, 5×10^3 cells/well were plated into 96-well plates, the edge of plates were filled with sterility PBS, at the same time, filled three holds only with medium as blank group. • 2. The plates were cultured in a humidified 5% CO2 incubator at 37° C. for 24 h. Allowed to proliferate for reaching their exponential phase of growth. • 3. Samples were dissolved in DMSO (Dimethyl Sulfoxide), the concentration of Samples is 10 mmol/L, 1 mmol/L, 100 μmol/L, 10 μmol/L, 1 μmol/L, 0.1 μmol/L, and further diluted with cell culture medium. The final does concentration were 10 μmol/L, 1 μmol/L, 100 nmol/L, 10 nmol/L, 1 nmol/L, 0.1 nmol/L, 0 nmol/L (the control group). The final DMSO concentration used was 1‰ of total volume of medium in all treatments, including the control group. • Blank: medium • Control: the same dose of DMSO with experiment group, the DMSO was diluted with cell perfect culture medium • Experiment: the cells were treated with the concentration of 10 μmol/L, 1 μmol/L, 100 nmol/L, 10 nmol/L, 1 nmol/L, 0.1 nmol/L • 4. The plates were cultured in a humidified 5% CO2 incubator at 37° C. for 72 h. 20 μL of 3-(4,5-dimethylthiazol-2-yl)-2,5-diphenyltetrazolium bromide (MTT) reagent (5 mg/mL) in phosphate buffered serum (PBS) was added to each well. • 5. The plates were cultured in a humidified 5% CO2 incubator at 37° C. for 4 h. Subsequently, the solution was aspirated and 150 uL dimethyl sulfoxide was added to release the formed formazan crystals from the living cells mitochondria into the solution. • 6. After moderated shaking for 3 min, absorbance was measured at 490 nm using microplate reader.

A375 cells = experiment: Cell growth inhibition assay (MTT), A375 cells; format: cell-based; conditions: Homo sapiens, A-375, 72 h
Protocol: as §1

Interleukin-4 (IL-4) = experiment: Inhibition of Interleukin-4 (IL-4), GFP+ of CD4+ spleen cells by flow cytometry; conditions: Mus musculus, 48 h, read-out: IL-4 inhibition
Protocol: Take spleens of BALB/c gene reported mice, culture in RPMI1640 medium (HyClone). • 2. Spleen will be ground into single cell suspension, add red blood cell lysis buffer (sigma) to suspension, for cracking the red blood cells. • 3. […] Dissolved compounds with DMSO and diluted with RPMI1640 medium containing 10% serum, diluted to a final concentration of 200 nM. • 5. […] After mixing, cells were added to 96 well plates, every hole is 100 μL. […] Each compound and control is three-hole wells, cultured at 37° C. for 48 h. • 6. After 48 h, the plates removed from the incubator and each well was collected in the flow tube (BD). • 7. Added cells to ice pre-cooling of PBS (phosphate buffer solution) solution to wash, and in 100 μL of PBS, join the fluorescent antibody CD4 0.5 μL, put in ice 15 min avoid light. • 8. After dyeing wash antibodies with the ice pre-cooling PBS solution. And prepare for flow cytometric detection. • 9. Using flow cytometry (BD FACS calibur) select the CD4+ cell populations, and detect GFP+ cells accounted for the percentage of CD4+ cells, to determine the impact of compounds on IL-4. • 10.
(§2) Control was DMSO and its concentration was same as the final concentration of test compounds.

TNF-α = experiment: Inhibition of TNF-α expression, LPS-stimulated spleen cells, ELISA; conditions: Mus musculus, 24 h, read-out: Inhibition of TNF-α expression
Protocol: Take spleens of BALB/c gene reported mice, cultured in RPMI1640 medium (HyClone). Spleen was ground into single cell suspension, added red blood cell lysis buffer (sigma) to suspension, for cracking the red blood cells • 2. […] Dissolved compounds with DMSO and diluted with RPMI1640 medium containing 10% serum, diluted to a final concentration of 200 nM. • 4. Cells were added to 96 well plates, every hole was 100 μL. […] Each compound and control is three-hole wells. • 5. Cultured at 37° C. for 24 h. • 6. […] Using ELISA (enzyme-linked immunosorbent assay) technique for the determination of the amount of TNF-α in the 24 hours.
as §2

COLO 205 tumor xenograft = experiment: In vivo anti-tumor efficacy in COLO205 tumor xenograft model
[1] = tested on: HT29 human colon cancer cells xenograft; experiment: In vivo anti-tumor efficacy in HT29 tumor xenograft model; design: species or system BALB/c nude mice; conditions: 20 mg/kg, oral gavage once daily, after 16 days of treatment, HT29 xenograft in nude mice
Protocol: Female BALB/c nude mice of 5-6 week old were used for all the in vivo efficacy studies. Mice were injected with HT29 human colon cancer cells at 5×10^6 cells per 100 μL SFM into right flank. Tumor volumes were monitored by caliper measurement using the formula: tumor volume (mm^3)=(w^2×l)/2, where w=width and c=length in mm of the tumor. When the tumor volumes reached 150˜300 mm^3, mice were randomized to treatment groups (5˜10 mice per group) to receive compounds (20 mg/kg doses) or vehicle by oral gavage once daily for 16 days. The tumor volumes and body weight were measured every 2-3 days for data analysis. Tumor growth inhibition (TGI) and body weight changes were calculated compared to the vehicle treated groups.

[2] = 10 mg/kg QD by gavage x 18 days

SMILES: O=S(=O)(Nc1cc2snnc2c(F)c1Nc1ccc(I)cc1F)C1(CC(O)CO)CC1 (centres unmarked) [Compound 22, 1-(2,3-dihydroxypropyl)-N-(4-fluoro-5-((2-fluoro-4-iodophenyl)amino)benzo[d][1,2,3]thiadiazol-6-yl)cyclopropane-1-sulfonamide]
IC50 (HT29 cells): 2620 nM | IC50 (A375 cells): 1160 nM

SMILES: O=C(NOCC(O)CO)c1cc2scnc2c(F)c1Nc1ccc(I)cc1F (centres unmarked) [Compound 10, N-(2,3-dihydroxypropoxy)-4-fluoro-5-((2-fluoro-4-iodophenyl)amino)benzo[d]thiazole-6-carboxamide]
IC50 (HT29 cells): 18.5 nM | IC50 (A375 cells): 11.2 nM

SMILES: O=S(=O)(Nc1cc2ocnc2c(F)c1Nc1ccc(I)cc1F)C1(CC(O)CO)CC1 (centres unmarked) [Compound 6, 1-(2,3-dihydroxypropyl)-N-(4-fluoro-5-((2-fluoro-4-iodophenyl)amino)benzo[d]oxazol-6-yl)cyclopropane-1-sulfonamide]
IC50 (HT29 cells): 78.3 nM | IC50 (A375 cells): 103 nM

SMILES: O=C(NOCCO)c1cc2ocnc2c(F)c1Nc1ccc(Br)cc1F [Compound 25, 4-fluoro-5-((2-fluoro-4-bromophenyl)amino)-N-(2-hydroxyethoxy)benzo[d]oxazole-6-carboxamide]
inhibition at 0.1 µM (Interleukin-4 (IL-4)): ≤ 50% | inhibition at 0.1 µM (TNF-α): ≤ 40%

SMILES: O=C(NOCCO)c1cc2ocnc2c(F)c1Nc1ccc(Br)cc1Cl [Compound 3, 5-((4-bromo-2-chlorophenyl)amino)-4-fluoro-N-(2-hydroxyethoxy)benzo[d]oxazole-6-carboxamide]
inhibition at 0.1 µM (Interleukin-4 (IL-4)): ≤ 50% | inhibition at 0.1 µM (TNF-α): ≤ 40% | Tumor growth inhibition vs vehicle control group (COLO 205 tumor xenograft; 20 mg/kg QD by gavage x 18 days): 47.11% | Tumor growth inhibition (TGI) [1]: 32.3% | IC50 (HT29 cells): 51.8 nM | IC50 (A375 cells): 61.3 nM

SMILES: O=C(NOCCO)c1cc2ocnc2c(F)c1Nc1ccc(I)cc1F [Compound 1, 4-fluoro-5-((2-fluoro-4-iodophenyl)amino)-N-(2-hydroxyethoxy)benzo[d]oxazole-6-carboxamide]
inhibition at 0.1 µM (Interleukin-4 (IL-4)): ≤ 50% | inhibition at 0.1 µM (TNF-α): ≤ 40% | Tumor growth inhibition vs vehicle control group (COLO 205 tumor xenograft; [2]): 91.22% | Tumor growth inhibition (TGI) [1]: 55.1% | IC50 (HT29 cells): 2.3 nM | IC50 (A375 cells): 0.85 nM

SMILES: O=S(=O)(Nc1cc2scnc2c(F)c1Nc1ccc(I)cc1F)C1(CC(O)CO)CC1 (centres unmarked) [Compound 14, 1-(2,3-dihydroxypropyl)-N-(4-fluoro-5-((2-fluoro-4-iodophenyl)amino)benzo[d]thiazol-6-yl)cyclopropane-1-sulfonamide]
IC50 (HT29 cells): 201 nM | IC50 (A375 cells): 119 nM

SMILES: O=C(NOCCO)c1cc2snnc2c(F)c1Nc1ccc(I)cc1F [Compound 17, 4-fluoro-5-((2-fluoro-4-iodophenyl)amino)-N-(2-hydroxyethoxy)benzo[d][1,2,3]thiadiazole-6-carboxamide]
inhibition at 0.1 µM (Interleukin-4 (IL-4)): ≤ 50% | inhibition at 0.1 µM (TNF-α): ≤ 40% | Tumor growth inhibition vs vehicle control group (COLO 205 tumor xenograft; 5 mg/kg QD by gavage x 18 days): 95.35% | Tumor growth inhibition (TGI) [1]: 88.75% | IC50 (HT29 cells): 1 nM | IC50 (A375 cells): 0.24 nM

SMILES: O=C(NOCC(O)CO)c1cc2ocnc2c(F)c1Nc1ccc(I)cc1F (centres unmarked) [Compound 2, N-(2,3-dihydroxypropoxy)-4-fluoro-5-((2-fluoro-4-iodophenyl)amino)benzo[d]oxazole-6-carboxamide]
IC50 (HT29 cells): 8.1 nM | IC50 (A375 cells): 4.6 nM

SMILES: O=C(NOCCO)c1cc2scnc2c(F)c1Nc1ccc(Br)cc1F [Compound 34, 4-fluoro-5-((2-fluoro-4-bromophenyl)amino)-N-(2-hydroxyethoxy)benzo[d]thiazol-6-carboxamide]
inhibition at 0.1 µM (Interleukin-4 (IL-4)): ≤ 50% | inhibition at 0.1 µM (TNF-α): ≤ 40%

SMILES: Cn1cnc2c(F)c(Nc3ccc(Br)cc3Cl)c(C(=O)NOCCO)cc21 [Reference compound 1, reference compound]
Tumor growth inhibition vs vehicle control group (COLO 205 tumor xenograft; [2]): 72.80%

SMILES: O=C(NOCC(O)CO)c1cc2ocnc2c(F)c1Nc1ccc(Br)cc1Cl (centres unmarked) [Compound 4, 5-((4-bromo-2-chlorophenyl)amino)-N-(2,3-dihydroxypropoxy)-4-fluorobenzo[d]oxazole-6-carboxamide]
IC50 (HT29 cells): 138 nM | IC50 (A375 cells): 97.5 nM

SMILES: O=C(NOCC(O)CO)c1cc2snnc2c(F)c1Nc1ccc(I)cc1F (centres unmarked) [Compound 18, N-(2,3-dihydroxypropoxy)-4-fluoro-5-((2-fluoro-4-iodophenyl)amino)benzo[d][1,2,3]thiadiazole-6-carboxamide]
IC50 (HT29 cells): 66.4 nM | IC50 (A375 cells): 16.8 nM

SMILES: O=C(NOCCO)c1cc2snnc2c(F)c1Nc1ccc(Br)cc1F [Compound 43, 5-((4-bromo-2-fluorophenyl)amino)-4-fluoro-N-(2-hydroxyethoxy)benzo[d][1,2,3]thiadiazole-6-carboxamide]
inhibition at 0.1 µM (Interleukin-4 (IL-4)): ≤ 50% | inhibition at 0.1 µM (TNF-α): ≤ 40%

SMILES: O=S(=O)(Nc1cc2ocnc2c(F)c1Nc1ccc(Br)cc1Cl)C1(CC(O)CO)CC1 (centres unmarked) [Compound 8, N-(5-((4-bromo-2-chlorophenyl)amino)-4-fluorobenzo[d]oxazol-6-yl)-1-(2,3-dihydroxypropyl)cyclopropane-1-sulfonamide]
IC50 (HT29 cells): 1090 nM | IC50 (A375 cells): 738 nM

SMILES: Cn1cnc2c(F)c(Nc3ccc(Br)cc3Cl)c(C(=O)NOCCO)cc21 [AZD6244, reference compound]
Tumor growth inhibition (TGI) [1]: 48.3%

SMILES: O=C(NOCC(O)CO)c1cc2snnc2c(F)c1Nc1ccc(Br)cc1Cl (centres unmarked) [Compound 20, 5-((4-bromo-2-chlorophenyl)amino)-N-(2,3-dihydroxypropoxy)-4-fluorobenzo[d][1,2,3]thiadiazole-6-carboxamide]
IC50 (HT29 cells): 687 nM | IC50 (A375 cells): 97.3 nM

SMILES: O=C(NOCCO)c1cc2snnc2c(F)c1Nc1ccc(Br)cc1Cl [Compound 19, 5-((4-bromo-2-chlorophenyl)amino)-4-fluoro-N-(2-hydroxyethoxy)benzo[d][1,2,3]thiadiazole-6-carboxamide]
inhibition at 0.1 µM (Interleukin-4 (IL-4)): ≤ 50% | inhibition at 0.1 µM (TNF-α): ≤ 40% | Tumor growth inhibition vs vehicle control group (COLO 205 tumor xenograft; [2]): 86.22% | Tumor growth inhibition (TGI) [1]: 50.9% | IC50 (HT29 cells): 65.7 nM | IC50 (A375 cells): 49.4 nM

SMILES: O=C(NOCC(O)CO)c1cc2scnc2c(F)c1Nc1ccc(Br)cc1Cl (centres unmarked) [Compound 12, N-(2,3-dihydroxypropoxy)-4-fluoro-5-((4-bromo-2-chlorophenyl)amino)benzo[d]thiazole-6-carboxamide]
IC50 (HT29 cells): 738 nM | IC50 (A375 cells): 174 nM

SMILES: O=S(=O)(Nc1cc2ocnc2c(F)c1Nc1ccc(I)cc1F)C1CC1 [Compound 5, N-(4-fluoro-5-((2-fluoro-4-iodophenyl)amino)benzo[d]oxazol-6-yl)cyclopropanesulfonamide]
IC50 (HT29 cells): 81.6 nM | IC50 (A375 cells): 125 nM

Now from value to compound, other results behind:

IC50 (HT29 cells): 283 nM | IC50 (A375 cells): 239 nM
SMILES: O=S(=O)(Nc1cc2ocnc2c(F)c1Nc1ccc(Br)cc1Cl)C1CC1 [Compound 7, N-(5-((4-bromo-2-chlorophenyl)amino)-4-fluorobenzo[d]oxazol-6-yl)cyclopropanesulfonamide]

IC50 (HT29 cells): 51.2 nM | IC50 (A375 cells): 61.4 nM
SMILES: O=C(NOCCO)c1cc2scnc2c(F)c1Nc1ccc(Br)cc1Cl [Compound 11, 5-((4-bromo-2-chlorophenyl)amino)-4-fluoro-N-(2-hydroxyethoxy)benzo[d]thiazole-6-carboxamide]
inhibition at 0.1 µM (Interleukin-4 (IL-4)): ≤ 50% | inhibition at 0.1 µM (TNF-α): ≤ 40% | Tumor growth inhibition vs vehicle control group (COLO 205 tumor xenograft; [2]): 82.14% | Tumor growth inhibition (TGI) [1]: 68.51%

IC50 (HT29 cells): 98.3 nM | IC50 (A375 cells): 207 nM
SMILES: O=S(=O)(Nc1cc2scnc2c(F)c1Nc1ccc(I)cc1F)C1CC1 [Compound 13, N-(4-fluoro-5-((2-fluoro-4-iodophenyl)amino)benzo[d]thiazol-6-yl)cyclopropanesulfonamide]

IC50 (HT29 cells): 3640 nM | IC50 (A375 cells): 562 nM
SMILES: O=S(=O)(Nc1cc2snnc2c(F)c1Nc1ccc(Br)cc1Cl)C1CC1 [Compound 23, N-(5-((4-bromo-2-chlorophenyl)amino)-4-fluorobenzo[d][1,2,3]thiadiazol-6-yl)cyclopropanesulfonamide]

IC50 (HT29 cells): 1310 nM | IC50 (A375 cells): 151 nM
SMILES: O=S(=O)(Nc1cc2scnc2c(F)c1Nc1ccc(Br)cc1Cl)C1(CC(O)CO)CC1 (centres unmarked) [Compound 16, N-(5-((4-bromo-2-chlorophenyl)amino)-4-fluorobenzo[d]thiazol-6-yl)-1-(2,3-dihydroxypropyl)cyclopropane-1-sulfonamide]

IC50 (HT29 cells): 184 nM | IC50 (A375 cells): 99.8 nM
SMILES: O=S(=O)(Nc1cc2scnc2c(F)c1Nc1ccc(Br)cc1Cl)C1CC1 [Compound 15, N-(5-((4-bromo-2-chlorophenyl)amino)-4-fluorobenzo[d]thiazol-6-yl)cyclopropanesulfonamide]

IC50 (HT29 cells): 4370 nM | IC50 (A375 cells): 992 nM
SMILES: O=S(=O)(Nc1cc2snnc2c(F)c1Nc1ccc(Br)cc1Cl)C1(CC(O)CO)CC1 (centres unmarked) [Compound 24, N-(5-((4-bromo-2-chlorophenyl)amino)-4-fluorobenzo[d][1,2,3]thiadiazol-6-yl)-1-(2,3-dihydroxypropyl)cyclopropane-1-sulfonamide]

IC50 (HT29 cells): 1080 nM | IC50 (A375 cells): 1770 nM
SMILES: O=S(=O)(Nc1cc2snnc2c(F)c1Nc1ccc(I)cc1F)C1CC1 [Compound 21, N-(4-fluoro-5-((2-fluoro-4-iodophenyl)amino)benzo[d][1,2,3]thiadiazol-6-yl)cyclopropanesulfonamide]
